Reference: paper PMC12304826, “Redirecting the Peptide Cleavage Causes Protease Inactivation” (Angewandte Chemie (International Ed. in English), 2025)
Like-named read-outs stand apart in the source and are kept apart here.

Columns and labels:
human cathepsin L = biological target: T1, human cathepsin L (Homo sapiens, UniProt P07711); assay: Cathepsin L inhibition assay (Cbz-Phe-Arg-pNA); format: biochemical
T1 construct: purchased Enzo Life Sciences, Lörrach, Germany
Procedure: 1. Enzyme Inhibition Assays and Kinetic Data of Inhibition of Cathepsins B, L, K and S General. Human cathepsins were assayed either fluorimetrically or spectrophotometrically as noted below. The 10 mM inhibitor solutions were prepared in DMSO. The final concentration of DMSO in all assays was 2%. Non-linear regressions were conducted with GraFit 5. Residual cathepsin activity at an inhibitor concentration of 20 µM was determined from duplicate measurements based on the product formation after 60 min. Concentration dependent measurements were performed in duplicate measurements with five different inhibitor concentrations when the residual cathepsin activity in the presence of 20 µM inhibitor was below 70% (cathepsin B) or below 50% (cathepsins cathepsins L, K, and S). Progress curves were monitored for 60 min. First-order rate constants, kobs, were determined by non-linear regression following the equation [P] = vi × (1 – exp(-kobs × t))/kobs + d, where [P] is the product concentration, vi is the initial product formation rate, kobs is the observed first-order rate constant, and d is the offset. Mean values of kobs were plotted versus corresponding inhibitor concentrations [I], and second-order rate constants of inactivation, kinac/Ki, were obtained by linear regression. The equation kobs/[I] = (kinac/Ki)/(1 + [S]/Km) was used, where [S] is the substrate concentration and Km is the Michaelis-Menten constant. Standard errors (SE) refer to the linear regression. […] Cathepsin L inhibition assay.[1] Human isolated cathepsin L (Enzo Life Sciences, Lörrach, Germany) was assayed spectrophotometrically on a Cary 50 or 100 Bio, Varian, at 405 nm. The reactions were followed at 37 °C. Assay buffer was 100 mM sodium phosphate buffer pH 6.0, 100 mM NaCl, 5 mM EDTA, and 0.01% Brij 35. A stock solution of human cathepsin L of 135 μg/mL in 20 mM malonate buffer pH 5.5, 400 mM NaCl, and 1 mM EDTA was diluted 1:100 with assay buffer containing 5 mM DTT and incubated for 30 min at 37 °C. A 10 mM stock solution of the chromogenic substrate Cbz-Phe-Arg-pNA was prepared in DMSO. The final concentration of the substrate was 100 μM (= 5.88 Km).
Into a cuvette containing 940 μL assay buffer, inhibitor solution and DMSO in a total volume of 10 μL, and 10 μL of the substrate solution were added and mixed. The reaction was initiated by adding 40 μL of the cathepsin L solution.

human cathepsin S = biological target: T2, human cathepsin S (Homo sapiens, UniProt P25774); assay: Cathepsin S inhibition assay (Cbz-Phe-Arg-AMC); format: biochemical
T2 construct: purchased Enzo Life Sciences, Lörrach, Germany
T2 sequence (P25774 115-331): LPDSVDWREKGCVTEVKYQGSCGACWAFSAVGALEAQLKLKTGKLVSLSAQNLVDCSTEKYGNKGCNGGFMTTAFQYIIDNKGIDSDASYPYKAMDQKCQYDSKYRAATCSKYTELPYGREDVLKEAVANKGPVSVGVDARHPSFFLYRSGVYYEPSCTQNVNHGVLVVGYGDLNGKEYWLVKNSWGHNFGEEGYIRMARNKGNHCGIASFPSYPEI
Procedure: 1. Enzyme Inhibition Assays and Kinetic Data of Inhibition of Cathepsins B, L, K and S General. Human cathepsins were assayed either fluorimetrically or spectrophotometrically as noted below. The 10 mM inhibitor solutions were prepared in DMSO. The final concentration of DMSO in all assays was 2%. Non-linear regressions were conducted with GraFit 5. Residual cathepsin activity at an inhibitor concentration of 20 µM was determined from duplicate measurements based on the product formation after 60 min. Concentration dependent measurements were performed in duplicate measurements with five different inhibitor concentrations when the residual cathepsin activity in the presence of 20 µM inhibitor was below 70% (cathepsin B) or below 50% (cathepsins cathepsins L, K, and S). Progress curves were monitored for 60 min. First-order rate constants, kobs, were determined by non-linear regression following the equation [P] = vi × (1 – exp(-kobs × t))/kobs + d, where [P] is the product concentration, vi is the initial product formation rate, kobs is the observed first-order rate constant, and d is the offset. Mean values of kobs were plotted versus corresponding inhibitor concentrations [I], and second-order rate constants of inactivation, kinac/Ki, were obtained by linear regression. The equation kobs/[I] = (kinac/Ki)/(1 + [S]/Km) was used, where [S] is the substrate concentration and Km is the Michaelis-Menten constant. Standard errors (SE) refer to the linear regression. […]
methyl-coumarin (AMC)-based fluorogenic substrate Cbz-Leu-Arg-AMC was prepared in DMSO. The final concentration of the substrate was 40 μM (= 13.3 Km). When using the spectrofluorometer, into a cuvette containing 960 μL assay buffer, inhibitor solution and DMSO in a total volume of 16 μL, and 4 […]
When using the plate reader, into a well containing 192 µL assay buffer, inhibitor solution and DMSO in a total volume of 3.2 µL and 0.8 µL of the substrate solution were added and mixed. The reaction was initiated by adding 4 µL of the cathepsin K solution.
Cathepsin S inhibition assay.[2] Human recombinant cathepsin S (Enzo Life Sciences, Lörrach, […]
nm and for emission 440 nm. The reactions were followed at 25 °C. Assay buffer was 100 mM sodium phosphate buffer pH 6.0, 100 mM NaCl, 5 mM EDTA, and 0.01% Brij 35. A stock solution of human cathepsin S of 70 μg/mL in 100 mM MES buffer, pH 6.5, 1 mM EDTA, 50 mM L-cysteine, 10 mM DTT, 0.5% Triton X-100 and 30% glycerol was diluted 1:100 with a 50 mM sodium phosphate buffer pH 6.5, 50 mM NaCl, 2 mM EDTA, 0.01% Triton X-100 and 5 mM DTT and incubated for 60 min at 37 °C. A 10 mM stock solution of the fluorogenic substrate Cbz-Phe-Arg-AMC was prepared in DMSO.
The assay was performed with a final substrate concentration of 40 µM (= 0.74 Km). When using the spectrofluorometer, into a cuvette containing 920 μL assay buffer, inhibitor solution and DMSO in a total volume of 16 μL, and 4 μL of the substrate solution were added and mixed. The reaction was initiated by adding 60 μL of the cathepsin S solution. When using the plate reader, into a well containing 188 µL assay buffer, inhibitor solution and DMSO in a total volume of 3.2 µL and 0.8 µL of the substrate solution were added and mixed. The reaction was initiated by adding […] of the cathepsin S solution.

[1] = 20 µM inhibitor, 60 min, read-out: Residual activity @ 20 µM (%) Cat L
[2] = 20 µM inhibitor, 60 min, read-out: Residual activity @ 20 µM (%) Cat S
[3] = inhibitor not soluble at 20 µM, calculated for 20 µM from IC50 at two lower concentrations, read-out: Residual activity @ 20 µM (%) Cat S, approximated [e]
[4] = inhibitor not soluble at 20 µM, calculated for 20 µM from IC50 at two lower concentrations, read-out: Residual activity @ 20 µM (%) Cat L, approximated [e]

T1 sequence (P07711 114-333): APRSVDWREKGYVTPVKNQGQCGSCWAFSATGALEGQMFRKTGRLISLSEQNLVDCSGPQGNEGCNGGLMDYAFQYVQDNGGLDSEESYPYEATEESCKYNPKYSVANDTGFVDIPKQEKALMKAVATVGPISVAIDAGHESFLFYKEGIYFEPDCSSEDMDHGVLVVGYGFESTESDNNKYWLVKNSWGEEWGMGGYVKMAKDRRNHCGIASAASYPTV

Structure (SMILES) | remaining activity at 20 µM (human cathepsin L; [1]) [%] | remaining activity at 20 µM (human cathepsin S; [2]) [%] | remaining activity at 20 µM (human cathepsin S; [3]) [%] | remaining activity at 20 µM (human cathepsin L; [4]) [%] | kinac/Ki ± SE Cat S (human cathepsin S; five inhibitor concentrations, 60 min progress curves) [M⁻¹ s⁻¹]
CC(C)CC(OC(=O)Nc1ccc(Cl)cc1)C(=O)N1CCC[C@H]1C(=O)O (stereo partly drawn) [Compound 17] | 94 | 93 | – | – | –
CC(C)C[C@H](NC(=O)Oc1ccc(Cl)cc1)C(=O)N1CCCC[C@H]1C(=O)O [Compound 10] | 91 | ≥ 98 | – | – | –
CC(C)C[C@H](NC(=O)Oc1ccc(-c2ccccc2)c(NC(=O)Cc2ccccc2)c1)C(=O)N1CCC[C@H]1C(=O)O [Compound 21] | 92 | 89 | – | – | –
CC(C)C[C@H](NC(=O)Nc1ccc(Cl)cc1)C(=O)N[C@@H](Cc1ccccc1)C(=O)O [Compound 18] | 94 | 78 | – | – | –
CC(C)C[C@H](NC(=O)Oc1ccc(Cl)cc1)C(=O)N[C@@H](Cc1ccccc1)C(=O)OC(C)(C)C [Compound 2] | 96 | ≥ 98 | – | – | –
CC(C)C[C@H](NC(=O)Oc1ccc(Cl)c(NC(=O)Cc2ccccc2)c1)C(=O)N1CCC[C@H]1C(=O)O [Compound 20] | 96 | 93 | – | – | –
CC(C)CC(NC(=O)Oc1ccc(NC(=O)c2ccc(-c3ccccc3)cc2)c(Cl)c1)C(=O)N1CCCC1C(=O)O (stereo not drawn) [Compound 25] | 94 | – | 53 | – | –
O=C(NC(CC1CCCCC1)C(=O)NC(Cc1ccccc1)C(=O)O)Oc1ccc(Cl)cc1 (stereo not drawn) [Compound 7] | 86 | 72 | – | – | –
CC(C)C[C@H](NC(=O)Oc1ccc(Cl)cc1)C(=O)N[C@@H](Cc1ccccc1)C(=O)O [Compound 4] | 92 | 83 | – | – | –
CC(C)CC(NC(=O)Oc1ccccc1)C(=O)NC(Cc1ccccc1)C(=O)O (stereo not drawn) [Compound 1] | 94 | 97 | – | – | –
COC(=O)C(Cc1ccccc1)NC(=O)C(CC(C)C)NC(=O)Oc1ccc(Cl)cc1 (stereo not drawn) [Compound 3] | 85 | 79 | – | – | –
CC(C)C[C@H](NC(=O)Oc1ccc(NC(=O)N(Cc2ccccc2)Cc2ccccc2)c(Br)c1)C(=O)N1CCC[C@H]1C(=O)O [Compound 26] | – | 59 | – | – | –
O=C(NC(CC1CCCCC1)C(=O)NC(Cc1ccccc1)C(=O)O)Oc1ccc(NC(=O)C(c2ccccc2)c2ccccc2)c(Cl)c1 (stereo not drawn) [Compound 30] | – | – | 42 | 64 | –
O=C(NC(CC1CCCCC1)C(=O)NC(Cc1ccccc1)C(=O)O)Oc1ccc(NC(=O)C(Cc2ccccc2)Cc2ccccc2)c(Cl)c1 (stereo not drawn) [Compound 31] | – | – | 46 | 76 | –
CC(C)CC(CNC(=O)Oc1ccc(Cl)cc1)C(=O)N[C@H](Cc1ccccc1)C(=O)O (stereo partly drawn) [Compound 5] | 90 | – | – | – | 10.2
CC(C)C[C@H](NC(=O)Oc1ccc(NC(=O)Cc2ccccc2)c(Cl)c1)C(=O)N1CCC[C@H]1C(=O)O [Compound 24] | 97 | 90 | – | – | –
CC(C)C[C@H](NC(=O)Nc1ccc(Cl)cc1)C(=O)N1CCC[C@H]1C(=O)O [Compound 19] | 96 | ≥ 98 | – | – | –
CC(C)CC(CNC(=O)Oc1ccc(Cl)cc1)C(=O)N1CCC[C@@H]1C(=O)O (stereo partly drawn) [Compound 9] | 95 | 92 | – | – | –
CC(C)CC(OC(=O)Nc1ccc(Cl)cc1)C(=O)N[C@@H](Cc1ccccc1)C(=O)O (stereo partly drawn) [Compound 16] | 95 | 56 | – | – | –
CC(C)CC(NC(=O)Oc1ccc(NC(=O)C(c2ccccc2)c2ccccc2)c(Cl)c1)C(=O)NC(Cc1ccccc1)C(=O)O (stereo not drawn) [Compound 29] | – | – | 63 | 70 | –
CC(C)C[C@H](NC(=O)Oc1ccc(Cl)cc1)C(=O)N1CCC[C@H]1C(=O)O [Compound 8] | 97 | ≥ 98 | – | – | –
CC(C)CC(NC(=O)Oc1ccc(NC(=O)C(c2ccccc2)c2ccccc2)c(Cl)c1)C(=O)N1CCCC1C(=O)O (stereo not drawn) [Compound 28] | – | 58 | – | 62 | –
CC(C)CC(NC(=O)Oc1ccc(NC(=O)C(c2ccccc2)c2ccccc2)c(Br)c1)C(=O)N1CCCC1C(=O)O (stereo not drawn) [Compound 27] | 81 | 60 | – | – | –
CC(C)C[C@H](NC(=O)Oc1cccc(Cl)c1)C(=O)N1CCC[C@H]1C(=O)O [Compound 23] | 92 | 89 | – | – | –
CC(C)C[C@@H](C(=O)N1CCC[C@H]1C(=O)O)N(C)C(=O)Oc1ccc(Cl)cc1 [Compound 15] | 97 | ≥ 98 | – | – | –
CC(C)CC(NC(=O)Oc1ccc(Cl)c(NC(=O)C(c2ccccc2)c2ccccc2)c1)C(=O)N1CCCC1C(=O)O (stereo not drawn) [Compound 22] | – | 87 | – | 59 | –
